In US7202048B2, “Onset of force development as a marker of thrombin generation” (Hemodyne, Inc., priority 2002, dated 2007):
“Also recorded” adds a separate entry of the source.

Experiments:
Assay type in all cases: cell-based, human
normal whole blood [1] = assay: Thrombin generation time (TGT), onset of PCF after calcium and batroxobin
Procedure: FIG. 1. Determination of the thrombin generation time (TGT) from the kinetics of platelet contractile force (PCF) development after addition of calcium (10 mM final) and batroxobin (0.21 μg/ml final) to 700 μl of citrated (3.2%) whole blood at time zero. The TGT is taken to be the initial inflection point of the PCF curve, ie. the moment the PCF first begins to increase.
(§1) The patients and normal controls in this study were enrolled under a series of protocols approved by the Institutional Review Board for Human Studies of Virginia Commonwealth University. Written consent was obtained from each volunteer. Blood was obtained via aseptic venipuncture into evacuated tubes containing 3.2% sodium citrate.
(§2) Whole blood clot formation was induced by the addition of CaCl2 or a combination of CaCl2 and batroxobin (0.21 μg/ml). Platelet contractile force development and clot elastic modulus were measured for 1200 seconds.
Citrated blood clotted with batroxobin, or other similar enzymes (e.g., reptilase), and calcium develops PCF. […] During this time period, thrombin is generated by re-calcification. Since the fibrin network is in place prior to the generation of thrombin, PCF becomes apparent as soon as a small amount of thrombin is generated (FIG. 1). Thus, the inflection or take off point in the PCF curve serves as a marker of thrombin generation in the batroxobin mediated assay. For ease in identification, the first derivative of the curve in FIG. 1 will provide a sharp break where the curve increases (TGT being at the spike). The instrumentation used for the analysis, such as that shown in FIG. 9, can provide the output of FIG. 1 or the first derivative for identification of TGT, or, alternatively, the output could simply be an indicator light array indicating when the TGT is in the normal range or outside of the normal range.
We designate the time between calcium addition and initial PCF development the Thrombin Generation Time (TGT). Similar results can be obtained without using a snake venom enzyme if one simply recalcifies the plasma sample. Since thrombin generation must be followed by fibrin clot formation before PCF can begin to occur in the recalcification assay, the lag phase tends to be longer and more variable. Similar assays termed reptilase clot retractions were shown in the early seventies to be sensitive to a variety of antiplatelet and anticoagulant agents (10).

normal whole blood [2] = assay: Platelet contractile force (PCF) in batroxobin/calcium-clotted whole blood (Hemodyne); conditions: for PCF: 1200 seconds
Procedure: as §1, §2
The Hemodyne® hemostasis analyzer (Hemodyne, Inc., Richmond, Va., USA) measures forces generated by platelets within a clot formed between a thermostated cup and parallel upper plate (7,8). Before clotting, the upper plate is centered above the cup and lowered into the sample. As the clot forms, it attaches to the inner walls of the cup and the bottom of the upper plate. The entire sample volume is contained between the upper and lower surfaces. Once fibrin is formed, platelets within the network pull fibrin strands inward transmitting force through the network to the surfaces to which the clot is adherent. Force measurement is accomplished utilizing a transducer coupled to the upper plate. As platelets contract, the transducer produces an electrical output proportional to the amount of force generated. The transducer output is continuously recorded.

normal whole blood [3] = assay: Clot elastic modulus (CEM) in batroxobin/calcium-clotted whole blood (Hemodyne); conditions: 1200 seconds
Procedure: as §1, §2
Clot elastic modulus was measured by applying a downward force of known magnitude to the upper plate of the Hemodyne apparatus (9). The amount of downward displacement caused by the force was measured. The ratio of downward force (stress) to downward displacement (strain) was used to calculate the elastic modulus. Stress equals the force applied divided by the area of application and strain is the degree of shape change induced by the applied force.

[4] = 0.165 U/ml added to normal whole blood
[5] = 0.330 U/ml added to normal whole blood
[6] = 0.660 U/ml added to normal whole blood
[7] = 1.320 U/ml added to normal whole blood
[8] = increasing concentrations in normal whole blood
[9] = bivalirudin 3.5 μg/ml in normal whole blood

Row | Substance | TGT (normal whole blood [1]; [4]) [s] | TGT (normal whole blood [1]; [5]) [s] | TGT (normal whole blood [1]; [6]) [s] | TGT (normal whole blood [1]; [7]) [s] | Effect on TGT (normal whole blood [1]; [8]) | PCF (normal whole blood [2]; [4]) [Kdynes] | PCF (normal whole blood [2]; [5]) [Kdynes] | PCF (normal whole blood [2]; [6]) [Kdynes] | PCF (normal whole blood [2]; [7]) [Kdynes] | Effect on PCF (normal whole blood [2]; [8]) | CEM (normal whole blood [3]; [4]) [Kdynes/cm^2] | CEM (normal whole blood [3]; [5]) [Kdynes/cm^2] | CEM (normal whole blood [3]; [6]) [Kdynes/cm^2] | CEM (normal whole blood [3]; [7]) [Kdynes/cm^2] | Effect on TGT (normal whole blood [1]; [9]) | Effect on PCF (normal whole blood [2]; [9])
1 | Hirudin | 420 | 480 | 560 | >1200 | prolongs; also recorded: dose depend prolongation | 4.01 | 3.57 | 1.80 | 0.70 | declines; also recorded: reduction | 12.34 | 11.21 | 6.50 | 0.73 |  | 
2 | bivalirudin |  |  |  |  |  |  |  |  |  |  |  |  |  |  | prolongs | lower; also recorded: decreases
